How the values were obtained:
[1] = Ratio of extracellular fluid of brain AUC to plasma AUC in Sprague-Dawley rat at 600 mg/kg, iv; assay type: ADME, organism-based; set-up: dose 600 mg/kg, route intravenous; conditions: read-out: Ratio AUC
[2] = Tmax in Sprague-Dawley rat plasma at 400 mg/kg, iv; assay type: ADME, organism-based; set-up: dose 400 mg/kg, route intravenous
Brain [3] = assay: AUC in Sprague-Dawley rat extracellular fluid of brain at 400 mg/kg, iv; assay type: ADME, organism-based; set-up: dose 400 mg/kg, route intravenous; conditions: in vivo
Rattus norvegicus [4] = assay: Increase of sleep time in Sprague-Dawley rat at 800 mg/kg, iv; assay type: functional
Rattus norvegicus [5] = assay: Increase of sleep time in iv dosed Sprague-Dawley rat; assay type: functional, organism-based
[6] = Tmax in Sprague-Dawley rat extracellular fluid of brain at 600 mg/kg, iv; assay type: ADME, organism-based; set-up: dose 600 mg/kg, route intravenous
Rattus norvegicus [7] = assay: Increase of sleep time in Sprague-Dawley rat at 600 mg/kg, iv; assay type: functional
[8] = Tmax in Sprague-Dawley rat extracellular fluid of brain at 800 mg/kg, iv; assay type: ADME, organism-based; set-up: dose 800 mg/kg, route intravenous
[9] = Drug uptake in rat RBE4 cells at pH 7.4 up to 10 mins by Michaelis-Menten analysis; assay type: ADME, cell-based
Plasma [10] = assay: Cmax in Sprague-Dawley rat plasma at 400 mg/kg, iv after 30 to 180 mins; assay type: ADME, organism-based; set-up: dose 400 mg/kg, route intravenous; conditions: in vivo
[11] = Cmax in Sprague-Dawley rat extracellular fluid of brain at 600 mg/kg, iv; assay type: ADME, organism-based; set-up: dose 600 mg/kg, route intravenous; conditions: in vivo
Plasma [12] = assay: Cmax in Sprague-Dawley rat plasma at 400 mg/kg, iv; assay type: ADME, organism-based; set-up: dose 400 mg/kg, route intravenous; conditions: in vivo
[13] = Dissociation constant, pKa of the compound; assay type: physicochemical
[14] = Ratio of extracellular fluid of brain AUC to plasma AUC in Sprague-Dawley rat at 800 mg/kg, iv; assay type: ADME, organism-based; set-up: dose 800 mg/kg, route intravenous; conditions: read-out: Ratio AUC
[15] = Renal clearance in Sprague-Dawley rat at 600 mg/kg, iv; assay type: ADME, organism-based, Kidney; set-up: dose 600 mg/kg, route intravenous; conditions: in vivo
[16] = Renal clearance in Sprague-Dawley rat at 400 mg/kg, iv; assay type: ADME, organism-based, Kidney; set-up: dose 400 mg/kg, route intravenous; conditions: in vivo
[17] = Drug uptake in rat RBE4 cells at 10 mM at pH 6.5 up to 10 mins by Michaelis-Menten analysis relative to at pH 7.4; assay type: ADME, cell-based; conditions: rbe4, pH 6.5, 10 min, 10000 µM
Brain [18] = assay: AUC in Sprague-Dawley rat extracellular fluid of brain at 800 mg/kg, iv; assay type: ADME, organism-based; set-up: dose 800 mg/kg, route intravenous; conditions: in vivo
Plasma [19] = assay: Cmax in Sprague-Dawley rat plasma at 600 mg/kg, iv after 30 to 180 mins; assay type: ADME, organism-based; set-up: dose 600 mg/kg, route intravenous; conditions: in vivo
[20] = Tmax in Sprague-Dawley rat plasma at 800 mg/kg, iv; assay type: ADME, organism-based; set-up: dose 800 mg/kg, route intravenous
[21] = Tmax in Sprague-Dawley rat plasma at 600 mg/kg, iv; assay type: ADME, organism-based; set-up: dose 600 mg/kg, route intravenous
[22] = Cmax in Sprague-Dawley rat extracellular fluid of brain at 400 mg/kg, iv; assay type: ADME, organism-based; set-up: dose 400 mg/kg, route intravenous; conditions: in vivo
Plasma [23] = assay: AUC in Sprague-Dawley rat plasma at 400 mg/kg, iv; assay type: ADME, organism-based; set-up: dose 400 mg/kg, route intravenous; conditions: in vivo
Plasma [24] = assay: AUC in Sprague-Dawley rat plasma at 600 mg/kg, iv; assay type: ADME, organism-based; set-up: dose 600 mg/kg, route intravenous; conditions: in vivo
[25] = Drug uptake in human hCMEC/D3 cells at 58 nM at pH 7.4 after 15 to 30 seconds by liquid scintillation counting; assay type: ADME, cell-based; conditions: hcmec/d3, pH 7.4, 0.058 µM
Plasma [26] = assay: Cmax in Sprague-Dawley rat plasma at 800 mg/kg, iv after 30 to 180 mins; assay type: ADME, organism-based; set-up: dose 800 mg/kg, route intravenous; conditions: in vivo
[27] = Drug uptake in human hCMEC/D3 cells at 10 mM at pH 6.5 up to 10 mins by Michaelis-Menten analysis relative to at pH 7.4; assay type: ADME, cell-based; conditions: hcmec/d3, pH 6.5, 10 min, 10000 µM
[28] = Drug uptake in human hCMEC/D3 cells at pH 7.4 up to 10 mins by Michaelis-Menten analysis; assay type: ADME, cell-based
Rattus norvegicus [29] = assay: Increase of sleep time in Sprague-Dawley rat at 400 mg/kg, iv; assay type: functional
[30] = Cmax in Sprague-Dawley rat extracellular fluid of brain at 800 mg/kg, iv; assay type: ADME, organism-based; set-up: dose 800 mg/kg, route intravenous; conditions: in vivo
[31] = Drug uptake in rat RBE4 cells at 58 nM at pH 7.4 after 15 to 30 seconds by liquid scintillation counting; assay type: ADME, cell-based; conditions: rbe4, pH 7.4, 0.058 µM
Plasma [32] = assay: AUC in Sprague-Dawley rat plasma at 800 mg/kg, iv; assay type: ADME, organism-based; set-up: dose 800 mg/kg, route intravenous; conditions: in vivo
[33] = Ratio of extracellular fluid of brain AUC to plasma AUC in Sprague-Dawley rat at 400 mg/kg, iv; assay type: ADME, organism-based; set-up: dose 400 mg/kg, route intravenous; conditions: read-out: Ratio AUC
[34] = Renal clearance in Sprague-Dawley rat at 800 mg/kg, iv; assay type: ADME, organism-based, Kidney; set-up: dose 800 mg/kg, route intravenous; conditions: in vivo
[35] = Tmax in Sprague-Dawley rat extracellular fluid of brain at 400 mg/kg, iv; assay type: ADME, organism-based; set-up: dose 400 mg/kg, route intravenous
Brain [36] = assay: AUC in Sprague-Dawley rat extracellular fluid of brain at 600 mg/kg, iv; assay type: ADME, organism-based; set-up: dose 600 mg/kg, route intravenous; conditions: in vivo
[37] = Drug recovery in Sprague-Dawley rat brain frontal cortex at 400 to 800 mg/kg, iv by microdialysis; assay type: ADME, organism-based; set-up: dose 400-800 mg/kg, route intravenous; conditions: in vivo

For `O=C([O-])CCCO.[Na+]` [SODIUM OXYBATE], the Kp [1] was 0.07, the Tmax [2] was 5 min and the AUC (Brain [3]) was 4.9 mg·min/mL. The Time (Rattus norvegicus [4]) was 171 min, the Activity (Rattus norvegicus [5]) was “Dose-dependent effect” and the Tmax [6] was 50 min. The Time (Rattus norvegicus [7]) was 138 min, the Tmax [8] was 50 min and the Km at 10 min ([9]; RBE4 cells, pH 7.4) was 23.3 mM. It also gave a Vmax ([9]; rbe4, pH 7.4, 10 min) of 258 pmol/mg/min, a Cmax (Plasma [10]) of 600 µM and a Cmax [11] of 550 µM. The Cmax (Plasma [12]) was 8400 µM, the pKa [13] was 4.72 and the Kp [14] was 0.07. The CL renal [15] was 1.41 mL/min/kg, the CL renal [16] was 1.55 mL/min/kg and the Drug uptake [17] was 126%. The AUC (Brain [18]) was 11.2 mg·min/mL, the Cmax (Plasma [19]) was 2400 µM and the Tmax [20] was 5 min. For the same molecule, the Tmax [21] was 5 min, the Cmax [22] was 390 µM and the AUC (Plasma [23]) was 66 mg·min/mL. For the same molecule, the AUC (Plasma [24]) was 124 mg·min/mL, the Drug uptake [25] was “Active” and the Cmax (Plasma [26]) was 3400 µM. The Drug uptake [27] was 126%, the Km at 10 min ([28]; hCMEC/D3 cells, pH 7.4) was 18.1 mM and the Vmax ([28]; hcmec/d3, pH 7.4, 10 min) was 248 pmol/mg/min. The Time (Rattus norvegicus [29]) was 90.4 min, the Cmax [30] was 660 µM and the Drug uptake [31] was “Active”. It also gave an AUC (Plasma [32]) of 145 mg·min/mL, a Kp [33] of 0.079 and a CL renal [34] of 2.18 mL/min/kg. It also gave a Tmax [35] of 50 min, an AUC (Brain [36]) of 8.7 mg·min/mL and a Drug recovery [37] of 32.5%.
